In patent US20230234943A1, “TREX1 INHIBITORS AND USES THEREOF” (Tempest Therapeutics, Inc., priority 2020, published 2023):

Molecular target: T1, Human TREX1 enzyme (amino acids 1-242) (Homo sapiens, UniProt Q9NSU2)
T1 construct: Human TREX1 enzyme (amino acids 1-242)
T1 sequence (Q9NSU2 1-242): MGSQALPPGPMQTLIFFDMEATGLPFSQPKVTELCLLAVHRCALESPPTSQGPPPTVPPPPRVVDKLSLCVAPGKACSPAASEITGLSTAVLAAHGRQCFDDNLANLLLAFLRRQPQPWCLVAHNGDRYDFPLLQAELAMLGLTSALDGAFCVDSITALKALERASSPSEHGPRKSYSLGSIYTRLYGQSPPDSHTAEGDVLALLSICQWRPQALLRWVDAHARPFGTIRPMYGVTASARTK
Assay: Human TREX1 enzymatic assay with dsDNA native oligonucleotide (Picogreen fluorescence)
Type: biochemical
Details: 2 mM dithiothreitol in assay buffer; 50 nM dsDNA oligonucleotide; 30 min preincubation at 25° C.; read-out: TREX1/Human + DTT IC50 AVG
Experimental: Example A. Human TREX1 Enzymatic Assay with dsDNA Native Oligonucleotide
Human TREX1 enzyme (amino acids 1-242) was diluted in assay buffer (20 mM Tris pH 7.7, 5 mM MgCl2, 0.01% human serum albumin, 0.01% Brij™-35, 2 mM dithiothreitol) to a final concentration of 0.8 nM to 0.16 nM and added to a 96-well low-binding polypropylene plate. Test compounds were diluted in DMSO to 50× concentration (final DMSO concentration in reaction mixture of 2%) and added to the wells with a concentration ranging from 300 μM to 13 nM or 30 μM to 1.5 nM. The reaction mixtures were incubated for 30 minutes at 25° C. and a solution of annealed dsDNA oligonucleotide (5′-[…]-3′ and Comp: 5′-[…]-3′) was added to a final concentration of 50 nM. The reaction mixtures were incubated at 25° C. for 5-15 minutes and subsequently quenched by transferring part of the assay reaction to a solution of 100 mM ethylenediaminetetraacetic acid and 1:100 Picogreen™ (final concentration of […]) in a black plate with an opaque bottom. The fluorescence ([…]) was measured using a Molecular Devices SpectraMax plate reader. Wells containing oligonucleotide but no TREX1 enzyme were used as negative controls. Wells containing oligonucleotide, TREX1 enzyme, and DMSO were used as positive controls.

IC50 [µM] | Compound
10 to 100 | COc1cc(-c2nc3cc(N4CCN(C(C)C)CC4)ccc3[nH]2)cc(O)c1O [Example 72, 5-(5-(4-isopropylpiperazin-1-yl)-1H-benzo[d]imidazol-2-yl)-3-methoxybenzene-1,2-diol]
> 100 | COc1cc(-c2nc3cc(N4CCN(c5ccccn5)CC4)ccc3[nH]2)cc(O)c1O [Example 73, 3-methoxy-5-(5-(4-(pyridin-2-yl)piperazin-1-yl)-1H-benzo[d]imidazol-2-yl)benzene-1,2-diol]
10 to 100 | COc1cc(-c2nc3cc(N4CCC(N(C)C)CC4)ccc3[nH]2)cc(O)c1O [Example 74, 5-(5-(4-(dimethylamino)piperidin-1-yl)-1H-benzo[d]imidazol-2-yl)-3-methoxybenzene-1,2-diol]
> 100 | COc1cc(-c2nc3cc(C4CCCCC4)ccc3[nH]2)cc(O)c1O [Example 75, 5-(5-cyclohexyl-1H-benzo[d]imidazol-2-yl)-3-methoxybenzene-1,2-diol]
10 to 100 | COc1cc(-c2nc3c(N4CCOCC4)cncc3[nH]2)cc(O)c1O [Example 76, 3-methoxy-5-(7-morpholino-3H-imidazo[4,5-c]pyridin-2-yl)benzene-1,2-diol]
10 to 100 | COc1cc(-c2nc3ccncc3s2)cc(O)c1O [Example 77, 3-methoxy-5-(thiazolo[5,4-c]pyridin-2-yl)benzene-1,2-diol]
10 to 100 | COc1cc(-c2nc3ccncc3[nH]2)c(C)c(O)c1O [Example 78, 4-(3H-imidazo[4,5-c]pyridin-2-yl)-6-methoxy-3-methylbenzene-1,2-diol]
> 100 | COc1cc(-c2nc3ccncc3[nH]2)c(-c2cccnc2)c(O)c1O [Example 79, 4-(3H-imidazo[4,5-c]pyridin-2-yl)-6-methoxy-3-(pyridin-3-yl)benzene-1,2-diol]
> 100 | COc1cc(-c2nc3nc(N4CCOCC4)ncc3[nH]2)cc(O)c1O [Example 80, 3-methoxy-5-(2-morpholino-7H-purin-8-yl)benzene-1,2-diol]
> 100 | COc1cc(-c2nc3cc(N4CCN(C(=O)c5ccc6ccccc6c5)CC4)ccc3[nH]2)cc(O)c1O [Example 81, (4-(2-(3,4-dihydroxy-5-methoxyphenyl)-1H-benzo[d]imidazol-5-yl)piperazin-1-yl)(naphthalen-2-yl)methanone]
> 100 | COc1cc(-c2nc3cc(N4CCN(Cc5ccc6ccccc6c5)CC4)ccc3[nH]2)cc(O)c1O [Example 82, 3-methoxy-5-(5-(4-(naphthalen-2-ylmethyl)piperazin-1-yl)-1H-benzo[d]imidazol-2-yl)benzene-1,2-diol]
10 to 100 | COc1cc(-c2nc3ccc(N4CCOCC4)cc3n2C2CCOC2)cc(O)c1O (stereo not drawn) [Example 83, 3-methoxy-5-(6-morpholino-1-(tetrahydrofuran-3-yl)-1H-benzo[d]imidazol-2-yl)benzene-1,2-diol]
> 100 | COc1cc(-c2nc3cc(N4CCN(C(=O)c5ccc(Cl)cc5)CC4)ccc3[nH]2)cc(O)c1O [Example 84, (4-chlorophenyl)(4-(2-(3,4-dihydroxy-5-methoxyphenyl)-1H-benzo[d]imidazol-5-yl)piperazin-1-yl)methanone]
1 to 10 | COc1ccc(C(=O)N2CCN(c3ccc4[nH]c(-c5cc(O)c(O)c(OC)c5)nc4c3)CC2)cc1 [Example 85, (4-(2-(3,4-dihydroxy-5-methoxyphenyl)-1H-benzo[d]imidazol-5-yl)piperazin-1-yl)(4-methoxyphenyl)methanone]
1 to 10 | COc1ccccc1C(=O)N1CCN(c2ccc3[nH]c(-c4cc(O)c(O)c(OC)c4)nc3c2)CC1 [Example 86, (4-(2-(3,4-dihydroxy-5-methoxyphenyl)-1H-benzo[d]imidazol-5-yl)piperazin-1-yl)(2-methoxyphenyl)methanone]
> 100 | COc1cc(-c2nc3cc(N4CCN(S(=O)(=O)c5ccccc5)CC4)ccc3[nH]2)cc(O)c1O [Example 87, 3-methoxy-5-(5-(4-(phenylsulfonyl)piperazin-1-yl)-1H-benzo[d]imidazol-2-yl)benzene-1,2-diol]
> 100 | C#CCCC1(CCC(=O)N2CCN(c3ccc4[nH]c(-c5cc(O)c(O)c(OC)c5)nc4c3)CC2)N=N1 [Example 88, 3-(3-(but-3-yn-1-yl)-3H-diazirin-3-yl)-1-(4-(2-(3,4-dihydroxy-5-methoxyphenyl)-1H-benzo[d]imidazol-5-yl)piperazin-1-yl)propan-1-one]

IC50 [µM] | Compound
> 100 | COc1cc(-c2nc3ccccc3n2C2COC2)cc(C(=O)O)c1O [Example 89, 2-hydroxy-3-methoxy-5-(1-(oxetan-3-yl)-1H-benzo[d]imidazol-2-yl)benzoic acid]
10 to 100 | O=C(O)c1c(O)cc(-c2nc3ccncc3[nH]2)cc1F [Example 90, 2-fluoro-6-hydroxy-4-(3H-imidazo[4,5-c]pyridin-2-yl)benzoic acid]
10 to 100 | COc1cc(-c2nc3cc(N4CCNC(C)(C)C4)ccc3[nH]2)cc(O)c1O [Example 91, 5-(5-(3,3-dimethylpiperazin-1-yl)-1H-benzo[d]imidazol-2-yl)-3-methoxybenzene-1,2-diol]
> 100 | COc1cc(-c2nc3cc(N(C)C)ccc3[nH]2)cc(O)c1O [Example 92, 5-(5-(dimethylamino)-1H-benzo[d]imidazol-2-yl)-3-methoxybenzene-1,2-diol]
> 100 | COc1cc(-c2nc3ccncc3n2C)c(-c2cccnc2)c(O)c1O [Example 93, 6-methoxy-4-(3-methyl-3H-imidazo[4,5-c]pyridin-2-yl)-3-(pyridin-3-yl)benzene-1,2-diol]
10 to 100 | COc1cc(-c2nc3nc(N4CCOCC4)ccc3[nH]2)cc(O)c1O [Example 94, 3-methoxy-5-(5-morpholino-1H-imidazo[4,5-b]pyridin-2-yl)benzene-1,2-diol]
10 to 100 | COc1cc(-c2nc3cc(N4CCOCC4)ccc3n2C2CCOC2)cc(O)c1O (stereo not drawn) [Example 95, 3-methoxy-5-(5-morpholino-1-(tetrahydrofuran-3-yl)-1H-benzo[d]imidazol-2-yl)benzene-1,2-diol]
10 to 100 | COc1cc(-c2nc3cc(N4CCN(C(=O)c5ccncc5)CC4)ccc3[nH]2)cc(O)c1O [Example 96, (4-(2-(3,4-dihydroxy-5-methoxyphenyl)-1H-benzo[d]imidazol-5-yl)piperazin-1-yl)(pyridin-4-yl)methanone]
10 to 100 | COc1cc(-c2nc3cc(N4CCN(C(=O)c5ccccn5)CC4)ccc3[nH]2)cc(O)c1O [Example 97, (4-(2-(3,4-dihydroxy-5-methoxyphenyl)-1H-benzo[d]imidazol-5-yl)piperazin-1-yl)(pyridin-2-yl)methanone]
1 to 10 | COc1cc(-c2nc3cc(N4CCN(C(=O)c5ccc(C)cc5)CC4)ccc3[nH]2)cc(O)c1O [Example 98, (4-(2-(3,4-dihydroxy-5-methoxyphenyl)-1H-benzo[d]imidazol-5-yl)piperazin-1-yl)(p-tolyl)methanone]
1 to 10 | COc1cc(-c2nc3cc(N4CCN(C(=O)c5ccccc5C)CC4)ccc3[nH]2)cc(O)c1O [Example 99, (4-(2-(3,4-dihydroxy-5-methoxyphenyl)-1H-benzo[d]imidazol-5-yl)piperazin-1-yl)(o-tolyl)methanone]
> 100 | COc1cc(-c2nc3cc(N4CCN(C(=O)c5ccc(C)cc5C)CC4)ccc3[nH]2)cc(O)c1O [Example 100, (4-(2-(3,4-dihydroxy-5-methoxyphenyl)-1H-benzo[d]imidazol-5-yl)piperazin-1-yl)(2,4-dimethylphenyl)methanone]
10 to 100 | COc1cc(-c2nc3cc(N4CCN(C(=O)c5cccc(C(=O)O)c5)CC4)ccc3[nH]2)cc(O)c1O [Example 101, 3-(4-(2-(3,4-dihydroxy-5-methoxyphenyl)-1H-benzo[d]imidazol-5-yl)piperazine-1-carbonyl)benzoic acid]
> 100 | COc1cc(-c2nc3cc(N4CCN(C(=O)c5ccc(C(F)(F)F)cc5)CC4)ccc3[nH]2)cc(O)c1O [Example 102, (4-(2-(3,4-dihydroxy-5-methoxyphenyl)-1H-benzo[d]imidazol-5-yl)piperazin-1-yl)(4-(trifluoromethyl)phenyl)methanone]
> 100 | COc1cc(-c2nc3cc(N4CCN(C(=O)c5cccc(C(F)(F)F)c5)CC4)ccc3[nH]2)cc(O)c1O [Example 103, (4-(2-(3,4-dihydroxy-5-methoxyphenyl)-1H-benzo[d]imidazol-5-yl)piperazin-1-yl)(3-(trifluoromethyl)phenyl)methanone]
> 100 | COc1cc(-c2nc3cc(N4CCN(C(=O)c5ccccc5C(F)(F)F)CC4)ccc3[nH]2)cc(O)c1O [Example 104, (4-(2-(3,4-dihydroxy-5-methoxyphenyl)-1H-benzo[d]imidazol-5-yl)piperazin-1-yl)(2-(trifluoromethyl)phenyl)methanone]
